Source: PubChem BioAssay (NCI)
Where “and” joins values, the source holds several entries; their conditions need not be identical. Identical values can stand only once.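 Grown in 96-well plates, cells were treated for 48 hours with each compound at five concentrations. Insufficient inhibition: endpoint recorded as highest concentration tested. GI50: concentration for 50% inhibition of growth. TGI: total growth inhibition.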

Key:
Test in all cases: DTP human tumour cell line panel, 48 h
[1] = system: IGROV1 ovarian
[2] = system: OVCAR-3 ovarian
[3] = system: NCI-H522 lung
[4] = system: NCI-H460 lung
[5] = system: A549 NSCLC
[6] = system: MDA-MB-435
[7] = system: LOX IMVI melanoma
[8] = system: SF-268 CNS
[9] = system: UACC-257 melanoma
[10] = system: A498 renal

COc1cc(/C=C/C(=O)CC(=O)/C=C/c2cc(OC)c(O)c(OC)c2)cc(OC)c1O
GI50 [1]: 11 µM
TGI [1]: 10.8 µM and 32.2 µM
GI50 [2]: 18.6 µM
TGI [2]: 17.3 µM and > 100 µM
GI50 [3]: 3.75 µM
TGI [3]: 15 µM and 14 µM
TGI [4]: > 100 µM
GI50 [5]: 16.6 µM
TGI [5]: 25 µM and > 100 µM
TGI [6]: 16.3 µM and 24 µM
GI50 [7]: 15.8 µM
TGI [7]: 25 µM and 66.3 µM
GI50 [8]: 9.06 µM
TGI [8]: 15.4 µM and 41.2 µM
GI50 [9]: 23.5 µM
TGI [9]: 25 µM and > 100 µM
GI50 [10]: 15.6 µM
TGI [10]: 12.2 µM and 37.5 µM

CCCCCCCCCCCNC=O
TGI [1]: > 100 µM
TGI [2]: > 100 µM
TGI [3]: 85.3 µM
TGI [4]: > 100 µM
TGI [5]: > 100 µM
TGI [6]: > 100 µM
TGI [7]: > 100 µM
TGI [8]: > 100 µM
TGI [9]: > 100 µM
TGI [10]: 86.7 µM

COc1cc(C)cc(C(=O)/C=C/c2ccccc2)c1O
TGI [1]: 30.5 µM
TGI [2]: 47.8 µM
TGI [3]: 50.8 µM
TGI [4]: 44.7 µM
TGI [5]: > 100 µM
TGI [6]: 83.6 µM
TGI [7]: 34.8 µM
TGI [8]: 88.1 µM
TGI [9]: 37.7 µM
TGI [10]: 33.3 µM

CC(C)[P+](c1ccccc1)(c1ccccc1)c1ccccc1
GI50 [1]: 14.3 µM
TGI [1]: > 100 µM
GI50 [2]: 4.49 µM
TGI [2]: > 100 µM
GI50 [3]: 2.6 µM
TGI [3]: 26.5 µM
GI50 [4]: 6.92 µM
TGI [4]: > 100 µM
GI50 [5]: 5.07 µM
TGI [5]: > 100 µM
GI50 [6]: 2.65 µM
TGI [6]: 25.3 µM
GI50 [7]: 9.94 µM
TGI [7]: > 100 µM
GI50 [8]: 5.11 µM
TGI [8]: > 100 µM
GI50 [9]: 1.07 µM
TGI [9]: 7.06 µM
GI50 [10]: 9.22 µM
TGI [10]: 74.9 µM

CN1CCN(CCCOc2ccc3nc(Nc4ccc(F)c(F)c4)ccc3c2)CC1
GI50 [1]: 3.11 µM
TGI [1]: 9.01 µM
GI50 [2]: 2.11 µM
TGI [2]: 6.37 µM
GI50 [3]: 1.44 µM
TGI [3]: 3.1 µM
GI50 [4]: 1.91 µM
TGI [4]: 4.12 µM
GI50 [5]: 2.19 µM
TGI [5]: 5.26 µM
GI50 [6]: 1.68 µM
TGI [6]: 3.36 µM
GI50 [7]: 1.53 µM
TGI [7]: 3.09 µM
GI50 [8]: 2.45 µM
TGI [8]: 8.31 µM
GI50 [9]: 1.76 µM
TGI [9]: 3.27 µM
GI50 [10]: 1.26 µM
TGI [10]: 4.03 µM

COc1ccc2nc(C)cc(Sc3nc4ccccc4s3)c2c1
GI50 [1]: 2.2 µM
TGI [1]: 13.9 µM
GI50 [2]: 1.47 µM
TGI [2]: 3.3 µM
GI50 [3]: 1.31 µM
TGI [3]: 3.15 µM
GI50 [4]: 1.89 µM
TGI [4]: 5.35 µM
GI50 [5]: 2.21 µM
TGI [5]: 14.2 µM
GI50 [6]: 1.76 µM
TGI [6]: 5.39 µM
GI50 [7]: 1.19 µM
TGI [7]: 3.37 µM
GI50 [8]: 2.02 µM
TGI [8]: 5.51 µM
GI50 [9]: 4.25 µM
TGI [9]: 25.5 µM
GI50 [10]: 1.37 µM
TGI [10]: 4.87 µM

COc1ccc(CSC2=C(C#N)C(=O)NC3(CCCCC3)S2)cc1
TGI [1]: > 100 µM
TGI [2]: > 82.1 µM
TGI [3]: 97.2 µM
TGI [4]: > 100 µM
TGI [5]: > 100 µM
TGI [6]: 38.2 µM
TGI [7]: > 64.8 µM
TGI [8]: > 87.4 µM
TGI [9]: > 100 µM
TGI [10]: > 100 µM

Cc1ccc(S(=O)(=O)n2cc([C@@]3(O)C[C@H](CSC#N)OC3=O)c3ccccc32)cc1
GI50 [1]: 7.54 µM
TGI [1]: 22.4 µM
GI50 [2]: 8.81 µM
TGI [2]: 21 µM
GI50 [3]: 3.99 µM
TGI [3]: 18.1 µM
GI50 [4]: 9.19 µM
TGI [4]: 23.9 µM
GI50 [5]: 29.2 µM
TGI [5]: > 100 µM
GI50 [6]: 6.78 µM
TGI [6]: 24.6 µM
GI50 [7]: 8.83 µM
TGI [7]: 66.4 µM
GI50 [8]: 5.1 µM
TGI [8]: 19.7 µM
GI50 [9]: 10.9 µM
TGI [9]: 56.4 µM
GI50 [10]: 14.7 µM
TGI [10]: 46.5 µM

NC(N)=NC(N)=Nc1ccc(C(=O)O)cc1
TGI [1]: > 100 µM
TGI [2]: > 100 µM
TGI [3]: > 100 µM
TGI [4]: > 100 µM
TGI [5]: > 100 µM
TGI [6]: > 100 µM
TGI [7]: > 100 µM
TGI [8]: > 100 µM
TGI [9]: > 100 µM
TGI [10]: > 100 µM

OCCCCC#Cc1ccccc1C#Cc1cccnc1
GI50 [1]: 20.3 µM
TGI [1]: 52 µM
GI50 [2]: 32.9 µM
TGI [2]: > 100 µM
GI50 [3]: 41.9 µM
TGI [3]: > 100 µM
GI50 [4]: 31.6 µM
TGI [4]: > 100 µM
GI50 [5]: 25.5 µM
TGI [5]: 80.2 µM
GI50 [6]: 32.2 µM
TGI [6]: > 100 µM
GI50 [7]: 29.6 µM
TGI [7]: > 100 µM
GI50 [8]: 40.3 µM
TGI [8]: > 100 µM
GI50 [9]: 25 µM
TGI [9]: 54.1 µM
GI50 [10]: 28.5 µM
TGI [10]: 88.4 µM

COc1ccc(Nc2ncnc3ccc(-c4cncc(NS(C)(=O)=O)c4)cc23)cc1Cl
GI50 [1]: 1.4 µM
TGI [1]: 4.46 µM
GI50 [2]: 1.66 µM
TGI [2]: 4.78 µM
GI50 [3]: 1.18 µM
TGI [3]: 4.08 µM
GI50 [4]: 4.11 µM
TGI [4]: 17 µM
GI50 [5]: 5.18 µM
TGI [5]: 22.9 µM
GI50 [6]: 3.19 µM
TGI [6]: 15.3 µM
GI50 [7]: 1.5 µM
TGI [7]: 4.28 µM
GI50 [8]: 2.3 µM
TGI [8]: 16.4 µM
GI50 [9]: 2.82 µM
TGI [9]: 14 µM
GI50 [10]: 1.8 µM
TGI [10]: 4.44 µM

C=C(C(=O)OC)[C@@H]1CC2OC1C(=O)C(C)CCC/C(C)=C/CC[C@@]2(C)O (stereo partly drawn)
GI50 [1]: 11.3 µM
TGI [1]: 25.4 µM
GI50 [2]: 15.9 µM
TGI [2]: 48.4 µM
GI50 [3]: 19.1 µM
TGI [3]: 48.4 µM
GI50 [4]: 50.5 µM
TGI [4]: > 100 µM
GI50 [5]: 20.1 µM
TGI [5]: 46 µM
GI50 [6]: 25.9 µM
TGI [6]: 79.4 µM
GI50 [7]: 20.2 µM
TGI [7]: 57.2 µM
GI50 [8]: 39.4 µM
TGI [8]: > 100 µM
GI50 [9]: 23.3 µM
TGI [9]: 76.3 µM
GI50 [10]: 37.2 µM
TGI [10]: 96.8 µM
